This note sets out measurements from PubChem BioAssay (NCI).

Experiment in all cases: inhibition of tumour cell growth, NCI panel, 48 h
In assay [1] the test system is CCRF-CEM leukemia.
Assay [2] deals with HCT-15 colon.
Assay [3] deals with OVCAR-3 ovarian.
Assay [4] deals with NCI-H226 lung.
Assay [5] relates to K-562 leukemia.
The test system of assay [6] is RPMI-8226 leukemia.
The test system of assay [7] is LXFL 529 NSCLC.
The subject of assay [8] is UACC-257 melanoma.
In assay [9] the test system is SW-620 colon.
The subject of assay [10] is DLD-1 colon.

Values joined by “and” are separate entries in the source; they are usually repeats but may differ in a detail not shown here. Equal values may be shown once.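 All cell lines were grown in 96-well plates and treated with compound for 48 hours. GI50 = concentration required for 50% inhibition of growth. The concentration for full growth arrest is given as TGI.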

As for `COc1ccc(-c2cc(C(=O)Nc3cccc(C(F)(F)F)c3)[nH]c(=S)n2)cc1`, the TGI in assay [1], in assay [2], in assay [3], in [4], in assay [5] and in [6] was over 100 µM throughout. Moreover, the TGI in [7], in [8], in [9] and in assay [10] was over 100 µM in each case.

Regarding `Cc1c(/C=C2\CC/C(=C\c3[nH]c(C(=O)OC(C)(C)C)c(C)c3C)C2=O)[nH]c(C(=O)OC(C)(C)C)c1C`, the TGI in [1], in assay [2], in assay [3], in assay [4], in assay [5] and in assay [6] was over 100 µM in each case. Moreover, the TGI in assay [7], in [8], in [9] and in [10] was over 100 µM each time.

Regarding `CCc1nc2c(O)ccc(O)c2nc1C`, the TGI was over 22.3 µM in [1]; 30.6 µM in assay [2]; 28.5 µM in assay [3]; 29.9 µM in [4]; over 20.8 µM in assay [5]; over 43.8 µM in assay [6]. The TGI in [7] is 15.8 µM; in assay [8], 31.4 µM; in assay [9] it was 4.1 µM; in assay [10] it was 9.35 µM.

For the compound `CC(C)(C)c1nc2c(o1)C(=Nc1ccccc1)c1ccccc1C2=O`, the TGI in assay [1] is over 100 µM; in [2], 27.9 µM; in assay [3], 6.24 µM; in assay [4] it was 23.5 µM; in assay [5] it was 44.8 µM; in assay [6], 50 µM. Further, the TGI in [7] is 50.1 µM; in [8] it was 4.45 µM; in assay [9], 18.4 µM; in assay [10], 38.1 µM.

For `N#C/C(=C\c1ccc(CP(=O)(O)O)cc1)C(N)=O`, the TGI in assay [1], in [2], in assay [3], in [4], in [5] and in [6] was over 100 µM each time. The TGI in assay [7], in assay [8], in assay [9] and in assay [10] was over 100 µM throughout.

As for `CC(=O)[CH-]C(=O)c1ccccc1.CC(=O)[CH-]C(=O)c1ccccc1.[Nd+3].[OH-].[OH3+]`, the GI50 in assay [1], in assay [2], in assay [3], in assay [4], in assay [5] and in assay [6] was over 100 µM each time. For the same compound, the GI50 in assay [7], in [8], in [9] and in assay [10] was over 100 µM throughout. Further, the TGI in [1], in [2], in assay [3], in assay [4], in assay [5] and in [6] was over 100 µM each time. Also, the TGI in assay [7], in assay [8], in assay [9] and in [10] was over 100 µM each time.

As to `OCC(O)CC[CH2][Sn]([c]1ccccc1)([c]1ccccc1)[c]1ccccc1` (centres undefined), the GI50 in assay [1] was 13.7 µM; in assay [2], 12.7 µM; in assay [3], 16.2 µM; in assay [4], 19 µM; in assay [5], 8.59 µM; in assay [6], 14.4 µM. For the same compound, the GI50 in assay [7] was 12.3 µM; in assay [8] it was 18.4 µM; in assay [9], 13.2 µM; in assay [10] it was 16.5 µM. Besides, the TGI came out at 41.6 µM in assay [1]; 26.8 µM in assay [2]; 29.8 µM in assay [3]; 70.8 µM in assay [4]; 23.8 µM in assay [5]; 47.5 µM in assay [6]. The TGI came to 24.9 µM in assay [7], 35.8 µM in assay [8], 26.9 µM in [9] and 32 µM in [10].

Turning to `CN(C)CCNC(=O)c1ccc2ccc3cccnc3c2n1`, the TGI in assay [1] is over 100 µM; in assay [2], 63.5 µM; in assay [3] it was 99 µM; in [4], 39.6 µM; in [5] it was over 100 µM; in [7] it was over 100 µM. The TGI in assay [8] was 35.4 µM; in [9] it was over 100 µM; in [10], over 84.4 µM.

Regarding `O=C(Cc1ccccc1)Oc1ccc2c(-c3ccccc3)c(C(=O)Nc3ccc(Cl)cc3)c(=O)oc2c1`, the TGI in assay [1], in assay [2], in [3], in assay [4], in assay [5] and in [6] was over 100 µM in each case. The TGI in assay [7], in assay [8], in assay [9] and in assay [10] was over 100 µM in each case.

As to `O=C1CCC2(c3ccc(F)cc3)Nc3ccccc3N12` (centres undefined), the TGI in assay [1], in assay [2], in [3], in assay [4], in assay [5] and in [6] was over 100 µM in each case. Moreover, the TGI in assay [7], in [8], in [9] and in [10] was over 100 µM in each case.

Take `COC(=O)N1[C@H]2Cc3c(OC)c(C)c(OC)c(OC)c3[C@@H]1/C(=C\c1cc(OC)c(OC)c(C)c1OC)N(Cc1ccccc1)C2=O`: the TGI was over 100 µM in [1]; over 100 µM in assay [3]; 11.7 µM in assay [4]; over 100 µM in [5]; over 100 µM in [6]; over 100 µM in assay [7]. For the same compound, the TGI in [8] and in assay [10] was over 100 µM throughout.

With `O=[N+]([O-])c1ccccc1S(=O)c1ccccc1` (centres undefined), the TGI in [1], in assay [2], in assay [3], in [4], in assay [5] and in assay [6] was over 100 µM throughout. Moreover, the TGI in assay [7], in [8], in assay [9] and in assay [10] was over 100 µM throughout.

On to `[Cu+2].[Cu+2].[O-]c1ccccc1C=Nc1ccccc1[O-].[O-]c1ccccc1C=Nc1ccccc1[O-]`, for which the GI50 in assay [1] was 3.33 µM; in [2], 7.25 µM; in assay [3], 5.56 µM; in assay [4], 20.4 µM; in assay [5] it was 4.07 µM; in assay [6] it was 3.5 µM. The GI50 is 3.02 µM in assay [7], 10.4 µM in assay [8], 6.61 µM in [9] and 3.95 µM in assay [10]. Besides, the TGI was found to be 21.3 µM in assay [1]; 21.5 µM in [2]; 15.8 µM in [3]; 36.5 µM in assay [4]; 52.9 µM in assay [5]; 54.6 µM in assay [6]. In addition, the TGI in [7] was 9.48 µM; in [8], 22.3 µM; in assay [9] it was 26.2 µM; in assay [10], 16.6 µM.

In the case of `O=C(O)CSc1n[nH]c(/C=C/c2ccccc2)n1`, the TGI in [1], in assay [2], in assay [3], in assay [4], in [5] and in assay [6] was over 100 µM in each case. Moreover, the TGI in assay [7], in [8], in assay [9] and in assay [10] was over 100 µM each time.

Consider `COc1ccc(CNc2cc(OC)cc(OC)c2)cc1`, for which the GI50 is 78.7 µM and 28.6 µM in [1]; > 100 µM and 46.6 µM in assay [2]; 97.7 µM and 42.6 µM in assay [10]. Further, the TGI in assay [1], in assay [2], in assay [3], in assay [4], in assay [5] and in assay [6] was over 100 µM each time. The TGI in [7], in assay [8], in assay [9] and in [10] was over 100 µM in each case.

`CCCCN(CC)C(=O)C(=O)C1C(=O)Nc2ccccc2S1=O` (centres undefined): the TGI in assay [1], in assay [2], in [3], in assay [4], in assay [5] and in [6] was over 100 µM in each case. For the same compound, the TGI in assay [7], in assay [8], in [9] and in assay [10] was over 100 µM throughout.

Take `C=C1C(=O)O[C@@H]2C[C@]3(C)[C@@H](C[C@H]12)[C@](C)(O)CC[C@@H]3O`: the TGI in assay [1], in assay [2], in [3], in assay [4], in assay [5] and in assay [6] was over 100 µM in each case. The TGI in assay [7], in assay [9] and in assay [10] was over 100 µM in each case.
